The results in this text go back to patent US6784137B2, “6-aryl-4-aminopicolinates and their use as herbicides” (Dow AgroSciences LLC, priority 2001, dated 2004).

The structures appear in SMILES notation.

Turning to `COC(=O)c1nc(-c2cnco2)cc(N)c1Cl` [Compound 7, methyl 4-amino-3-chloro-6-(5-oxazolyl)pyridine-2-carboxylate], the melting point was 166 to 170 °C.

In turn, `COC(=O)c1nc(-c2nc3ccccc3s2)cc(N)c1Cl` [Compound 9, Methyl 4-amino-3-chloro-6-(2-benzthiazolyl)pyridine-2-carboxylate] returned a melting point of 224 °C. On to `COC(=O)c1nc(-c2nnnn2C)cc(N)c1Cl` [Compound 10, Methyl 4-amino-3-chloro-6-(1-methyl-1H-tetrazol-5-yl)pyridine-2-carboxylate], for which the melting point lay within 239 to 241 °C. `COC(=O)c1nc(-c2nnn(C)n2)cc(N)c1Cl` [Compound 11, Methyl 4-amino-3-chloro-6-(2-methyl-2H-tetrazol-5-yl)pyridine-2-carboxylate] registered a melting point of 250 to 252 °C. The value for `COC(=O)c1nc(-c2ccc(Cl)cc2)c(F)c(N)c1Cl` [Compound 14, Methyl 4-amino-3-chloro-5-fluoro-6-(4-chlorophenyl)pyridine-2-carboxylate] was 233 to 236 °C. Next, `COC(=O)c1nc(-c2ccc(OC)cc2)c(Cl)c(N)c1Cl` [Compound 15, Methyl 4-amino-3,5-dichloro-6-(4-methoxyphenyl)pyridine-2-carboxylate]: 107 to 109 °C; `COC(=O)c1nc(-c2cccc(OC)c2)cc(N)c1Cl` [Compound 24, Methyl 4-amino-3-chloro-6-(3-methoxyphenyl)pyridine-2-carboxylate]: 122 to 123 °C; `COC(=O)c1nc(-c2ccccc2Cl)cc(N)c1Cl` [Compound 26, Methyl 4-amino-3-chloro-6-(2-chlorophenyl)pyridine-2-carboxylate]: 115 to 117 °C.

As to `COC(=O)c1nc(-c2ccc(C(C)=O)cc2)cc(N)c1Cl` [Compound 31, Methyl 4-amino-3-chloro-6-(4-acetylphenyl)pyridine-2-carboxylate], the melting point fell in the range of 146 to 148 °C. For `COC(=O)c1nc(-c2cc(Br)ccc2OC)cc(N)c1Cl` [Compound 32, Methyl 4-amino-3-chloro-6-(5-bromo-2-methoxyphenyl)pyridine-2-carboxylate], the melting point lay in the range of 191 to 192 °C. Next, `COC(=O)c1nc(-c2ccc(C(C)C)cc2)cc(N)c1Cl` [Compound 35, Methyl 4-amino-3-chloro-6-(4-isopropylphenyl)pyridine-2-carboxylate]: 92 to 93 °C; `COC(=O)c1nc(-c2ccccc2F)cc(N)c1Cl` [Compound 37, Methyl 4-amino-3-chloro-6-(2-fluorophenyl)pyridine-2-carboxylate]: 121 to 122 °C; `COC(=O)c1nc(-c2ccc(Cl)c(C)c2)cc(N)c1Cl` [Compound 38, Methyl 4-amino-3-chloro-6-(4-chloro-3-methylphenyl)pyridine-2-carboxylate]: 155 to 156 °C. The value for `COC(=O)c1nc(-c2ccc(Cl)c(Cl)c2)cc(N)c1Cl` [Compound 40, Methyl 4-amino-3-chloro-6-(3,4-dichlorophenyl)pyridine-2-carboxylate] was 170 °C; that for `COC(=O)c1nc(-c2ccc(C=O)cc2)cc(N)c1Cl` [Compound 41, Methyl 4-amino-3-chloro-6-(4-formylphenyl)pyridine-2-carboxylate] was 106 to 108 °C. The value for `COC(=O)c1nc(-c2cccc(C#N)c2)cc(N)c1Cl` [Compound 42, Methyl 4-amino-3-chloro-6-(3-cyanophenyl)pyridine-2-carboxylate] was 139 to 140 °C; that for `COC(=O)c1nc(-c2cc(C(F)(F)F)cc(C(F)(F)F)c2)cc(N)c1Cl` [Compound 46, Methyl 4-amino-3-chloro-6-(3,5-bis-(trifluoromethyl)phenyl)pyridine-2-carboxylate] was 139 to 140 °C; that for `COC(=O)c1nc(-c2ccc(F)cc2Cl)cc(NC(C)=O)c1Cl` [Compound 54, Methyl 4-acetamido-3-chloro-6-(2-chloro-4-fluorophenyl)pyridine-2-carboxylate] was 162 to 163 °C. For `COC(=O)c1nc(-c2c(F)cccc2F)cc(NC(C)=O)c1Cl` [Compound 55, Methyl 4-acetamido-3-chloro-6-(2,6-difluorophenyl)pyridine-2-carboxylate], the melting point fell in the range of 156 to 157 °C. For the compound `COC(=O)c1nc(-c2ccc(OC(F)(F)F)cc2)cc(N)c1Cl` [Compound 56, Methyl 4-amino-3-chloro-6-[4-(trifluoromethoxy)phenyl]pyridine-2-carboxylate], the melting point was in the range of 119 to 120 °C. With `COC(=O)c1nc(-c2cc(Cl)ccc2Cl)cc(NC(C)=O)c1Cl` [Compound 57, Methyl 4-acetamido-3-chloro-6-(2,5-dichlorophenyl)pyridine-2-carboxylate], the melting point amounted to 143 °C.

`COC(=O)c1nc(-c2ccc(Cl)c(F)c2)cc(NC(C)=O)c1Cl` [Compound 60, Methyl 4-acetamido-3-chloro-6-(4-chloro-3-fluorophenyl)pyridine-2-carboxylate] yielded a melting point of 156 to 157 °C.

`COC(=O)c1nc(-c2ccc(Cl)c(F)c2)cc(N)c1Cl` [Compound 61, Methyl 4-amino-3-chloro-6-(4-chloro-3-fluorophenyl)pyridine-2-carboxylate] showed a melting point of 149 to 151 °C. For `COC(=O)c1nc(-c2ccc(OC)c(OC)c2)cc(NC(C)=O)c1Cl` [Compound 63, Methyl 4-acetamido-3-chloro-6-(3,4-dimethoxyphenyl)pyridine-2-carboxylate], the melting point was in the range of 153 to 154 °C. For `COC(=O)c1nc(-c2ccc(OC)c(OC)c2)cc(N)c1Cl` [Compound 64, Methyl 4-amino-3-chloro-6-(3,4-dimethoxyphenyl)pyridine-2-carboxylate], the melting point was in the range of 126 to 127 °C. `COC(=O)c1nc(-c2ccc(Cl)cc2OC)cc(NC(C)=O)c1Cl` [Compound 66, Methyl 4-acetamido-3-chloro-6-(4-chloro-2-methoxyphenyl)pyridine-2-carboxylate]: the melting point lay within 176 to 178 °C. Next, `COC(=O)c1nc(-c2ccc(Cl)cc2OC)cc(N)c1Cl` [Compound 68, Methyl 4-amino-3-chloro-6-(4-chloro-2-methoxyphenyl)pyridine-2-carboxylate]: 152 to 154 °C; `COCc1cc(-c2cc(NC(C)=O)c(Cl)c(C(=O)OC)n2)ccc1Cl` [Compound 70, Methyl 4-acetamido-3-chloro-6-(4-chloro-3-methoxymethylphenyl)pyridine-2-carboxylate]: 120 to 122 °C. Regarding `COCc1cc(-c2cc(N)c(Cl)c(C(=O)OC)n2)ccc1Cl` [Compound 71, Methyl 4-amino-3-chloro-6-(4-chloro-3-methoxymethylphenyl)pyridine-2-carboxylate], the melting point was in the range of 73 to 74 °C.

Take `COC(=O)c1nc(-c2ccc3c(c2Cl)OCO3)cc(NC(C)=O)c1Cl` [Compound 72, Methyl 4-acetamido-3-chloro-6-(2-chloro-3,4-methylenedioxyphenyl)pyridine-2-carboxylate]: the melting point lay within 195 to 196 °C. Next, `COC(=O)c1nc(-c2ccc3c(c2Cl)OCO3)cc(N)c1Cl` [Compound 73, Methyl 4-amino-3-chloro-6-(2-chloro-3,4-methylenedioxyphenyl)pyridine-2-carboxylate]: 155 to 156 °C. Turning to `COC(=O)c1nc(-c2ccc3c(c2)CCC3)cc(NC(C)=O)c1Cl` [Compound 74, Methyl 4-acetamido-3-chloro-6-(5-indanyl)pyridine-2-carboxylate], the melting point lay in the range of 132 to 134 °C. Next, `COC(=O)c1nc(-c2ccc3c(c2)CCC3)cc(N)c1Cl` [Compound 75, Methyl 4-amino-3-chloro-6-(5-indanyl)pyridine-2-carboxylate]: 165 to 166 °C; `COC(=O)c1nc(-c2ccc3c(c2)CCO3)cc(N)c1Cl` [Compound 77, Methyl 4-amino-3-chloro-6-(2,3-dihydro-5-benzofuranyl)pyridine-2-carboxylate]: 143 °C; `COC(=O)c1nc(-c2cc(Cl)c(C)cc2F)cc(NC(C)=O)c1Cl` [Compound 78, Methyl 4-acetamido-3-chloro-6-(5-chloro-2-fluoro-4-methylphenyl)pyridine-2-carboxylate]: 187 to 195 °C. The value for `COC(=O)c1nc(-c2cc(Cl)c(C)cc2F)cc(N)c1Cl` [Compound 79, Methyl 4-amino-3-chloro-6-(5-chloro-2-fluoro-4-methylphenyl)pyridine-2-carboxylate] was 108 to 110 °C.

The compound `COC(=O)c1nc(-c2ccc(OC)c(C)c2)cc(N)c1Cl` [Compound 80, Methyl 4-amino-3-chloro-6-(4-methoxy-3-methylphenyl)pyridine-2-carboxylate] came in with a melting point of 158 °C. For the compound `COC(=O)c1nc(-c2cc(OC)ccc2OC)cc(NC(C)=O)c1Cl` [Compound 81, Methyl 4-acetamido-3-chloro-6-(2,5-dimethoxyphenyl)pyridine-2-carboxylate], the melting point lay in the range of 124 to 125 °C. Compound `COC(=O)c1nc(-c2ccc(C)cc2)cc(NC(C)=O)c1Cl` [Compound 83, Methyl 4-acetamido-3-chloro-6-(4-methylphenyl)pyridine-2-carboxylate] had a melting point of 156 °C.

On to `COC(=O)c1nc(-c2cnn(C)c2)cc(NC(C)=O)c1Cl` [Compound 87, Methyl 4-acetamido-3-chloro-6-(1-methyl-1H-pyrazol-4-yl)pyridine-2-carboxylate], for which the melting point fell in the range of 177 to 178 °C.

Regarding `COC(=O)c1nc(-c2cc3ccccc3o2)cc(N)c1Cl` [Compound 96, Methyl 4-amino-3-chloro-6-(2-benzofuranyl)pyridine-2-carboxylate], the melting point lay in the range of 182 to 183 °C. Next, `COC(=O)c1nc(-c2cc3ccccc3s2)cc(NC(C)=O)c1Cl` [Compound 97, Methyl 4-acetamido-3-chloro-6-(2-benzothienyl)pyridine-2-carboxylate]: 184 to 185 °C.

By melting point is commonly meant the temperature, or range, at which the solid turns liquid.
